For one experiment, the target named is T1, BsVdcCD (Bacillus subtilis, UniProt P94405).
T1 construct: gene bsdC; VdcC and VdcD expressed in E. coli BL21(DE3), His tag on C-terminus of VdcC and/or N-terminus of VdcD; reconstituted in vitro with prFMN and Mn2+; with Phenolic acid decarboxylase subunit D
T1 sequence (P94405 1-473): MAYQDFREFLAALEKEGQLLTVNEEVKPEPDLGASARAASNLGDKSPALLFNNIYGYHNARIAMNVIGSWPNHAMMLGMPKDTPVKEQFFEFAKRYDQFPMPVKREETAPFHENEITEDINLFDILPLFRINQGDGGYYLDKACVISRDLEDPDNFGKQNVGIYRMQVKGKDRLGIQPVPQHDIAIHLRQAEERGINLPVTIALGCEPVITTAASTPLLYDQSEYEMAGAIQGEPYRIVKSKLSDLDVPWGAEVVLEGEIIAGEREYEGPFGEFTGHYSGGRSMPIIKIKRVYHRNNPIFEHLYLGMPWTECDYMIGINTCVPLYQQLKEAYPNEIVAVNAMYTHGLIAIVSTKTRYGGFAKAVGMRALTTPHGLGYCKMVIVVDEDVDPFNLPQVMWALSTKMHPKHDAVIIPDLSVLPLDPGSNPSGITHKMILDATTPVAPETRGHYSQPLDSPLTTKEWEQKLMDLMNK
T1 sequence (C0H3U9 1-75 partner): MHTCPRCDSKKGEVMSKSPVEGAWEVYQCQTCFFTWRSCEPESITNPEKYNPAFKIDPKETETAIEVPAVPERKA
Description: overnight endpoint HPLC decarboxylation assay. It is filed as biochemical. Conditions: 5 mM substrate, 10 µM enzyme, prFMN, MnCl2, 100 mM KPi pH 6, anaerobic, 18 h.

Experiment [1] concerns the target Sedimentibacter hydroxybenzoicus VdcC, untagged (Sedimentibacter hydroxybenzoicus). Description: crystal structure; apo complexes; F222 closed (7AE4), P1 open (7AE5), P212121 ShVdcCD^V59X (7AE7); molecular replacement with E. coli UbiD domains.

In the case of `COc1cc(C(=O)O)cc(OC)c1O` [syringic acid], at BsVdcCD, the “overnight endpoint HPLC decarboxylation assay” value is given as “syringic acid, for which product formation could only be detected in the presence of BsVdcCD”.

Turning to `COc1cc(C(=O)O)ccc1O` [vanillic acid], the “overnight endpoint HPLC decarboxylation assay” value on BsVdcCD is listed as “the VdcC + VdcD reconstituted samples demonstrated considerable activity in contrast to isolated VdcC”.

As a reminder, the stoichiometry N is a count of units in the complex or per binding partner. As to “Sedimentibacter hydroxybenzoicus VdcC, untagged (enzyme)”, in experiment [1], the stoichiometry N was 6.

The values are drawn from paper PMC8379154, “UbiD domain dynamics underpins aromatic decarboxylation” (Nature Communications, 2021).
